Results from ChEMBL document CHEMBL5126602, “Polo-like Kinase 1 Inhibitors in Human Cancer Therapy: Development and Therapeutic Potential” (J Med Chem, 2022).
Blank lines part the entries; values can stand above or below the compound they belong to. Numbered stars: 1 amine (or outer) side, 2 acyl side, 3 side chain; on linkers, the order of the positions; unused ones are H or OH. Square brackets hold non-standard residues; d marks the D form. Peptide text beside a SMILES is read from it. X1 = O=C([C@H](Cc1cncn1CCCCc1cn(Cc2ccc(Oc3ccccc3)cc2F)nn1)N[*:1])[*:2]; pT = C[C@@H](OP(=O)(O)O)[C@H](N)C(=O)O

Tests used:
[1] = biological target: T1, Serine/threonine-protein kinase PLK1 (Homo sapiens, UniProt P53350); assay: Inhibition of human PLK1 in the presence of ATP
T1 sequence (P53350 whole entry, the tested form may be a part): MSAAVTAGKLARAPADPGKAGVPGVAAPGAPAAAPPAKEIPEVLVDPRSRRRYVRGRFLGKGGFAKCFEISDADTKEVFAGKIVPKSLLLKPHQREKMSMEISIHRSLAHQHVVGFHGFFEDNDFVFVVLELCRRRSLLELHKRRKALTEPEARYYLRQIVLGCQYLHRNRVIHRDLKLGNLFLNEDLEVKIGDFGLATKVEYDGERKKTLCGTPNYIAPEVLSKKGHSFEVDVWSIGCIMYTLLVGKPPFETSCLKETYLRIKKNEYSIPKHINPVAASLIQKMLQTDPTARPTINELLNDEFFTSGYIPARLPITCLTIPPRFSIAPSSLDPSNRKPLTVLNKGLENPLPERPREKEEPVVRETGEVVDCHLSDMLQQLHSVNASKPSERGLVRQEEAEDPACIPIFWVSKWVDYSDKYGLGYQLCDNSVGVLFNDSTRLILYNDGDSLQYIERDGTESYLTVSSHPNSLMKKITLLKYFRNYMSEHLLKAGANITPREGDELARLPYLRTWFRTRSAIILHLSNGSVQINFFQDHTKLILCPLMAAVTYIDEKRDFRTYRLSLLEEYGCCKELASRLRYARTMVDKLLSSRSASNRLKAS

[2] = biological target: T1, Serine/threonine-protein kinase PLK1; assay: Inhibition of biotin labelled PoloBoxtide binding to GST/His-fused full length PLK1 (unknown origin) expressed in baculovirus infected Sf9 cells
[3] = Half-life in rat liver microsomes; assay type: ADME, Microsome
[4] = Solubility of the compound; assay type: physicochemical
[5] = biological target: T1, Serine/threonine-protein kinase PLK1; assay: Inhibition of PLK1 (unknown origin) in the presence of ATP by ADP-Glo-kinase assay
[6] = biological target: T2, Serine/threonine-protein kinase PLK2 (Homo sapiens, UniProt Q9NYY3); assay: Inhibition of PLK2 (unknown origin) in the presence of ATP by ADP-Glo-kinase assay
T2 sequence (Q9NYY3 whole entry): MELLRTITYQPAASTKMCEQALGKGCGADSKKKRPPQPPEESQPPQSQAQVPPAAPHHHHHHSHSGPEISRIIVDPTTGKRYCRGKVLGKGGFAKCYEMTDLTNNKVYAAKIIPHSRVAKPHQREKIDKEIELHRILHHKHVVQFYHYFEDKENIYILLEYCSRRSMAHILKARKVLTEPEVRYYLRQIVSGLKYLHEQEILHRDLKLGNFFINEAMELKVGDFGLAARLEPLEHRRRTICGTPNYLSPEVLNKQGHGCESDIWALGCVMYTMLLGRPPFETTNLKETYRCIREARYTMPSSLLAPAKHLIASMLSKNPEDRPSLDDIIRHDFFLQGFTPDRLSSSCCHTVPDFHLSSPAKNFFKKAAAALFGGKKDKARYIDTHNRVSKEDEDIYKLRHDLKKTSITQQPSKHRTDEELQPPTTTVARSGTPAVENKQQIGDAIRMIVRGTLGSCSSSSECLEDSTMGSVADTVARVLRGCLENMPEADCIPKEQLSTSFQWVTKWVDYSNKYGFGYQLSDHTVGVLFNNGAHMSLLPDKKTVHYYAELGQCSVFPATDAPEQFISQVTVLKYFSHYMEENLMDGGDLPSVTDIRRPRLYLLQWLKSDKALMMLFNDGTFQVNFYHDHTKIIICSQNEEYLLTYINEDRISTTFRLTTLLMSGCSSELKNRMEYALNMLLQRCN

[7] = biological target: T3, Serine/threonine-protein kinase PLK3 (Homo sapiens, UniProt Q9H4B4); assay: Inhibition of PLK3 (unknown origin) in the presence of ATP by ADP-Glo-kinase assay
Target sequence in this assay (Q9H4B4 whole entry): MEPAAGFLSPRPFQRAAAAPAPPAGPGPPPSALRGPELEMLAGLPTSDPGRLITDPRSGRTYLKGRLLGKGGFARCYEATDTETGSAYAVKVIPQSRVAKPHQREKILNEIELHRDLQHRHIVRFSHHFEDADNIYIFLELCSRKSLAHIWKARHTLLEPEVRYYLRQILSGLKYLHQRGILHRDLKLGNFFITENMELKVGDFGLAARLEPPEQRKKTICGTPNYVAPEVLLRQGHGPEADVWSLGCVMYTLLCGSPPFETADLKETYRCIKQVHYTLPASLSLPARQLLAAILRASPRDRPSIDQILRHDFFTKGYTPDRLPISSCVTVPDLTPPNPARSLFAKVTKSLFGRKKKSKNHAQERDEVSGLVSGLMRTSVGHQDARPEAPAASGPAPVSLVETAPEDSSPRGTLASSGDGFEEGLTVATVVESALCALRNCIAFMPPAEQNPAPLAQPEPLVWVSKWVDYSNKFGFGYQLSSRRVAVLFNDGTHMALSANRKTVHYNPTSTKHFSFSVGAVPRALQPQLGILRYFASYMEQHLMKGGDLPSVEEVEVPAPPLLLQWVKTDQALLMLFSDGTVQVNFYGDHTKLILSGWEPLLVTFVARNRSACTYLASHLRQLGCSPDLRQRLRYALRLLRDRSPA

[8] = biological target: T1, Serine/threonine-protein kinase PLK1; assay: Inhibition of biotinylated p-T78 peptide binding to human HA-EGFP-PLK1 expressed in HEK293-A cells using TMB as substrate incubated for 1 hrs by ELISA plate reader based analysis
[9] = biological target: T1, Serine/threonine-protein kinase PLK1; assay: Inhibition of PLK1 PBD (unknown origin) dependent binding
[10] = biological target: T2, Serine/threonine-protein kinase PLK2; assay: Inhibition of 5-carboxyfluorescein-GPMQTSpTPKNG-OH peptide binding to PLK2 (355 to 685 residues) PBD (unknown origin) preincubated for 1 hrs with compound followed by peptide addition and measured after 1 hrs by fluorescence polarization assay
[11] = biological target: T3, Serine/threonine-protein kinase PLK3; assay: Inhibition of 5-carboxyfluorescein-GPLATSpTPKNG-OH peptide binding to PLK3 (335 to 646 residues) PBD (unknown origin) at 100 uM preincubated for 1 hrs with compound followed by peptide addition and measured after 1 hrs by fluorescence polarization assay; details: time 2.0 hrs
Target sequence in this assay (Q9H4B4 whole entry, looked up): as the sequence (Q9H4B4 whole entry) above

[12] = biological target: T1, Serine/threonine-protein kinase PLK1; assay: Inhibition of 5-carboxyfluoresceinGPMQSpTPLNG-OH peptide binding to PLK1 (326 to 603 residues) PBD (unknown origin) preincubated for 1 hrs with compound followed by peptide addition and measured after 1 hrs by fluorescence polarization assay
HeLa [13] = assay: Antiproliferative activity against human HeLa cells assessed as inhibition of cell proliferation incubated for 24 hrs by BCA assay; assay type: functional, cell-based
[14] = biological target: T1, Serine/threonine-protein kinase PLK1; assay: Inhibition of 5-carboxyfluoresceinGPMQSpTPLNG-OH peptide binding to human PLK1 (326 to 603 residues) PBD expressed in Rosetta BL21 (DE3) cells preincubated for 1 hrs with compound followed by peptide addition and measured immediately by fluorescence polarization assay
[15] = biological target: T2, Serine/threonine-protein kinase PLK2; assay: Inhibition of Myc-tagged PLK2 PBD (unknown origin) expressed in HEK293T cells using 5CF-GPMQTSpTPKNG-NH2 as substrate preincubated for 30 mins followed by substrate addition and measured after 30 mins by fluorescence polarization assay
[16] = biological target: T2, Serine/threonine-protein kinase PLK2; assay: Inhibition of 5-carboxyfluorescein-GPMQTSpTPKNG-OH peptide binding to C-terminal 6His-tagged human PLK2 (355 to 685 residues) PBD expressed in Rosetta BL21 (DE3) cells preincubated for 1 hrs with compound followed by peptide addition and measured immediately by fluorescence polarization assay
[17] = biological target: Serine/threonine-protein kinase PLK1 (Homo sapiens, UniProt P53350, T210D); assay: Inhibition of PLK1 T210D mutant kinase domain (unknown origin) using casein as substrate preincubated for 3 hrs followed by substrate addition and measured after 30 mins in the presence of ATP by ADP-Glo kinase assay
Serine/threonine-protein kinase PLK1 (Homo sapiens, UniProt P53350, T210D), sequence (P53350 2-603 T210D limits assumed): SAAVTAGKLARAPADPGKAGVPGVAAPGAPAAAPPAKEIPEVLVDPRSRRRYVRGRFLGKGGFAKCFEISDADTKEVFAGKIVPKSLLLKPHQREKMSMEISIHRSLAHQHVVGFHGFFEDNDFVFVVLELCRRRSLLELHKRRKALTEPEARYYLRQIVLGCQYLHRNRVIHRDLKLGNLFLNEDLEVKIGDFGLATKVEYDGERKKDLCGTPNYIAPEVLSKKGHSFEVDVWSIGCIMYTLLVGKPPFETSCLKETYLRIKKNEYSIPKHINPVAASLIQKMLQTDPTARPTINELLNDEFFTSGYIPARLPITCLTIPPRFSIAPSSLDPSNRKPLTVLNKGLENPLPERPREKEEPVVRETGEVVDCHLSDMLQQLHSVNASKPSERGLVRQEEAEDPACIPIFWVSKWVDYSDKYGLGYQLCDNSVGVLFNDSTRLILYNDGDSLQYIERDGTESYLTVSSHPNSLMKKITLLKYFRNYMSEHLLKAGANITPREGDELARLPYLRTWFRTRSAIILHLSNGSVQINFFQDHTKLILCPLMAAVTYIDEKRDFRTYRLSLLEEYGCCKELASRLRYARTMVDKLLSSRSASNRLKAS

[18] = biological target: T1, Serine/threonine-protein kinase PLK1; assay: Inhibition of 5-carboxyfluoresceinGPMQSpTPLNG-OH peptide binding to N-terminal His7-tagged human PLK1 (326 to 603 residues) PBD expressed in Escherichia coli BL21 (DE3) cells preincubated for 1 hrs with compound followed by peptide addition and measured after 1 hrs by fluorescence polarization assay
[19] = biological target: T1, Serine/threonine-protein kinase PLK1; assay: Inhibition of PLK1 in thymidine synchronized human HeLa cells using casein as substrate preincubated with compound for 13 hrs followed by substrate addition and measured after 12 to 36 hrs in the presence of [gamma33P]ATP by autoradiography based Western blot analysis; assay type: cell-based
MCF7 = assay: Antiproliferative activity against human MCF7 cells assessed as reduction in cell proliferation incubated for 72 hrs; assay type: functional, cell-based; details: MCF7, 72 h
A-431 = assay: Antiproliferative activity against human A-431 cells assessed as reduction in cell proliferation incubated for 72 hrs; assay type: functional, cell-based; details: A-431, 72 h
SK-OV-3 = assay: Antiproliferative activity against human SK-OV-3 cells assessed as reduction in cell viability incubated for 72 hrs; assay type: functional, cell-based; details: SK-OV-3, 72 h
HCT-15 = assay: Antiproliferative activity against human HCT-15 cells assessed as reduction in cell viability incubated for 72 hrs; assay type: functional, cell-based; details: HCT-15, 72 h
U2OS = assay: Antiproliferative activity against human U2OS cells assessed as reduction in cell viability incubated for 72 hrs; assay type: functional, cell-based
A549 = assay: Antiproliferative activity against human A549 cells assessed as reduction in cell viability incubated for 72 hrs; assay type: functional, cell-based; details: A549, 72 h
HT-29 = assay: Antiproliferative activity against human HT-29 cells assessed as reduction in cell viability incubated for 72 hrs; assay type: functional, cell-based; details: HT-29, 72 h
PC-3 = assay: Antiproliferative activity against human PC-3 cells assessed as reduction in cell viability incubated for 72 hrs; assay type: functional, cell-based; details: PC-3, 72 h
LN-229 = assay: Antiproliferative activity against human LN-229 cells assessed as reduction in cell viability incubated for 72 hrs; assay type: functional, cell-based; details: LN-229, 72 h
SKW 6.4 = assay: Antiproliferative activity against human SKW 6.4 cells assessed as reduction in cell viability incubated for 72 hrs; assay type: functional, cell-based; details: SKW 6.4, 72 h
Detroit 562 = assay: Antiproliferative activity against human Detroit 562 cells assessed as reduction in cell viability incubated for 72 hrs; assay type: functional, cell-based; details: Detroit 562, 72 h
[20] = biological target: T1, Serine/threonine-protein kinase PLK1; assay: Inhibition of 5-carboxyfluoresceinGPMQSpTPLNG-OH peptide binding to PLK1 (326 to 603 residues) PBD (unknown origin) preincubated for 1 hrs with compound followed by peptide addition and measured after 75 mins by fluorescence polarization assay
[21] = biological target: T2, Serine/threonine-protein kinase PLK2; assay: Inhibition of 5-carboxyfluorescein-GPMQTSpTPKNG-OH peptide binding to PLK2 (355 to 685 residues) PBD (unknown origin) preincubated for 1 hrs with compound followed by peptide addition and measured after 75 min by fluorescence polarization assay
[22] = biological target: T3, Serine/threonine-protein kinase PLK3; assay: Inhibition of 5-carboxyfluorescein-GPLATSpTPKNG-OH peptide binding to PLK3 (335 to 646 residues) PBD (unknown origin) at 100 uM preincubated for 1 hrs with compound followed by peptide addition and measured after 75 mins by fluorescence polarization assay; details: time 135.0 min
Target sequence in this assay (Q9H4B4 whole entry, looked up): as the sequence (Q9H4B4 whole entry) above

[23] = biological target: T1, Serine/threonine-protein kinase PLK1; assay: Inhibition of biotinylated PLHSpT peptide binding to n-terminal GST-tagged full length human PLK1 PBD preincubated with compound for 30 mins followed by peptide addition and measured after 1 hrs by time-resolved fluorescence energy transfer assay
HeLa [24] = assay: Antiproliferative activity against human HeLa cells assessed as inhibition of cell proliferation incubated for 72 hrs by MTT assay; assay type: functional, cell-based
MV4-11 = assay: Antiproliferative activity against human MV4-11 cells assessed as inhibition of cell growth incubated for 24 hrs by CCK-8 assay; assay type: functional, cell-based; details: MV4-11, 24 h

IC50 [1]: 0.015 µM
SMILES: C=CCn1c(=O)c2cnc(Nc3ccc(N4CCN(C)CC4)cc3)nc2n1-c1cccc(C(C)(C)O)n1 [ADAVOSERTIB]

IC50 [2]: 1 µM
SMILES: Cc1ccc(NC(=S)NCCNc2nccc(C(F)(F)F)n2)c(C)c1

half-life [3]: > 30 min
solubility [4]: > 60 µg/mL
SMILES: N#Cc1ccc(CC(=O)NCCCn2c(=O)c3cc(F)ccc3n3c(=S)[nH]nc23)cc1

IC50 [5]: 9 µM
IC50 [6]: 314 µM
IC50 [7]: 40 µM
SMILES: O=c1cc(-c2ccccc2)oc2cc(O)c(O)c(O)c12 [BAICALEIN]

half-life [3]: 20.1 min
solubility [4]: > 60 µg/mL
SMILES: COc1cccc(CC(=O)NCCCn2c(=O)c3cc(F)ccc3n3c(=S)[nH]nc23)c1

IC50 [8]: 4.5 µM
SMILES: C[C@H](OP(=O)(O)O)[C@H](NC(=O)c1ccc2c(c1)nc(CCCCc1ccccc1)n2CCc1ccccc1)C(N)=O

half-life [3]: > 30 min
solubility [4]: > 60 µg/mL
SMILES: O=c1c2cc(F)ccc2n2c(=S)[nH]nc2n1CC1CC1

half-life [3]: > 30 min
solubility [4]: > 60 µg/mL
SMILES: O=c1c2cc(F)ccc2n2c(=S)[nH]nc2n1CCC(F)(F)F

IC50 [9]: 128 µM
SMILES: CCCCCCCCCC1=CO[C@]2(C[C@H](C(=O)O)[C@@](CC(=O)O)(C(=O)O)O2)C1=O

IC50 [2]: 20 µM
SMILES: Cc1onc(-c2ccccc2)c1/C=C1\C(=O)Nc2ccccc21

IC50 [10]: 51.9 µM
inhibition [11]: 47%
IC50 [12]: 10.5 µM
IC50 (HeLa [13]): 14 µM
SMILES: CC1=C/C(=N/OC(=O)c2ccc(CNC(=O)CCc3cn(CCCCCCOCCOCCNC(=O)CC45CC6CC(CC(C6)C4)C5)nn3)cc2C)C(C)=CC1=O

IC50 [5]: 10.2 µM
IC50 [6]: 952 µM
IC50 [7]: 5120 µM
SMILES: COc1cc(O)c2c(=O)cc(-c3ccccc3)oc2c1OC [Moslosooflavone]

half-life [3]: > 30 min
solubility [4]: > 60 µg/mL
SMILES: O=c1c2cc(F)ccc2n2c(=S)[nH]nc2n1CCc1ccccn1

half-life [3]: > 30 min
solubility [4]: > 60 µg/mL
SMILES: O=c1c2cc(F)ccc2n2c(=S)[nH]nc2n1CCc1ccncc1

IC50 [14]: 17.9 µM
SMILES: N#Cc1cccc(CN2C[C@@H]3C[C@H](C2)c2c(-c4ccc5ccccc5c4)ccc(=O)n2C3)c1

SMILES: CC(=O)N1CCC[C@H]1C(=O)N[C@@H](CC(C)C)C(=O)N[C@@H](Cc1cn(CCCCCCCCc2ccccc2)nn1)C(=O)N[C@@H](CO)C(=O)N[C@H](C(N)=O)[C@@H](C)OP(=O)(O)O
IC50 [15]: 0.69 µM

IC50 [15]: 5.9 µM
SMILES: CC(=O)N1CCC[C@H]1C(=O)N[C@@H](CC(C)C)C(=O)N[C@@H](Cc1cncn1CCCCc1cn(Cc2ccc(Oc3ccccc3)cc2F)nn1)C(=O)N[C@@H](CO)C(=O)N[C@H](C(N)=O)[C@@H](C)OP(=O)(O)O (Ac-PL[X1]S[pT]-NH2)

IC50 [16]: 18.7 µM
SMILES: CC1=CC(=O)C(C(C)C)=C/C1=N/OC(=O)c1ccccc1C

IC50 [17]: 3.61 µM
SMILES: O=C(O)[C@H]1O[C@@H](Oc2cc3oc(-c4ccccc4)cc(=O)c3c(O)c2O)[C@H](O)[C@@H](O)[C@@H]1O [BAICALIN]

IC50 [18]: 1.36 µM
IC50 [10]: 14.2 µM
inhibition [11]: 49%
SMILES: CC1=C/C(=N/OC(=O)c2ccccc2C)C(C)=CC1=O

EC50 [19]: 0.0002 µM
EC50 (MCF7): 12 µM
EC50 (A-431): 33 µM
EC50 (SK-OV-3): 5 µM
EC50 (HCT-15): 5 µM
EC50 (U2OS): 5 µM
EC50 (A549): 5 µM
EC50 (HT-29): 5 µM
EC50 (PC-3): 5 µM
EC50 (SKW 6.4): 5 µM
SMILES: COc1ccc(CCNCc2ccc(OCc3ccc(Cl)nc3)c(OC)c2)cc1OC
EC50 (LN-229): 5 µM
EC50 (Detroit 562): 5 µM

IC50 [20]: 48.2 µM
IC50 [21]: 54.8 µM
inhibition [22]: 34%
IC50 (HeLa [13]): 9.2 µM
SMILES: CC1=C/C(=N/OC(=O)c2ccc(CNC(=O)CCc3cn(CCCCCCOCCOCCNC(=O)[C@H](C)CCC45CC6CC(CC(C6)C4)C5)nn3)cc2C)C(C)=CC1=O

IC50 [23]: 2.1 µM
IC50 (HeLa [24]): 22.4 µM
SMILES: COc1c2c(cc3c1C(CC(=O)c1ccccn1)[N+](C)(C)CC3)OCO2 (stereo not drawn)

IC50 [5]: 6.3 µM
IC50 [6]: 242 µM
IC50 [7]: 1600 µM
SMILES: O=C1C[C@@H](c2ccccc2)Oc2cc(O)c(O)c(O)c21

IC50 (MV4-11): 0.00448 µM
SMILES: CC[C@@H]1C(=O)N(C)c2cnc(Nc3ccc(C(=O)NCCOCCOCCNc4cccc5c4C(=O)N(C4CCC(=O)NC4=O)C5=O)cc3OC)nc2N1C1CCCC1 (stereo partly drawn)

IC50 [9]: 102 µM
SMILES: CCCCCCCCCC1=CO[C@]2(C[C@H](C(=O)O)[C@@](CC(=O)O)(C(=O)OCCCC)O2)C1=O
